Positions of bridges follow the written chain, without caps; N, C: chain ends. Non-standard residues stand in square brackets, D forms with d. Residues, ends and D or L forms follow the SMILES beside them. *: point of attachment. hPhe(3-Cl-4-CF3) = N[C@@H](CCc1ccc(C(F)(F)F)c(Cl)c1)C(=O)O; hPhe(3-F,4-CF3) = N[C@@H](CCc1ccc(C(F)(F)F)c(F)c1)C(=O)O; NMePhe(4-CF3) = CN[C@@H](Cc1ccc(C(F)(F)F)cc1)C(=O)O; 3Oxa8azabicyclo(3.2.1)octane = C1CC2COCC1N2*; NMeAbu(4,4,4-F3) = CN[C@@H](CC(F)(F)F)C(=O)O; NMePhe(4-Me) = CN[C@@H](Cc1ccc(C)cc1)C(=O)O; NMePhe(4-F) = CN[C@@H](Cc1ccc(F)cc1)C(=O)O; hPhe(4-Cl) = N[C@@H](CCc1ccc(Cl)cc1)C(=O)O; NMeAla(cPr) = CN[C@@H](CC1CC1)C(=O)O; NMeCha = CN[C@@H](CC1CCCCC1)C(=O)O; NMeChg = CN[C@H](C(=O)O)C1CCCCC1; NMeI = CC[C@H](C)[C@H](NC)C(=O)O; Gly(cBu) = N[C@H](C(=O)O)C1CCC1; NMeD = CN[C@@H](CC(=O)O)C(=O)O; NMeL = CN[C@@H](CC(C)C)C(=O)O; NPrAla = CCCN[C@@H](C)C(=O)O; NMeNva = CCC[C@H](NC)C(=O)O; NMeV = CN[C@H](C(=O)O)C(C)C; NMeAbu = CC[C@H](NC)C(=O)O; NMeS = CN[C@@H](CO)C(=O)O; NMeA = CN[C@@H](C)C(=O)O; Piperidide = C1CCN(*)CC1; Pyrrolidide = C1CCN(*)C1; Ac5c = NC1(C(=O)O)CCCC1; Aze = O=C(O)[C@@H]1CCN1; NEtG = CCNCC(=O)O; Sar = CNCC(=O)O; Propyl = CCC*
Legend:
[1] = biological target: T1, Kras and SOS1 (biotin-tagged human Kras loaded with GDP, His-tagged human SOS1) (Homo sapiens, UniProt P01116, G12D); assay: Protein-protein interaction inhibition between Kras and SOS1 (KrasGl2D-SOS PPI) using AlphaScreen; assay type: binding; settings: AlphaScreen; biotin-tagged human Kras loaded with GDP, His-tagged human SOS1; read-out: KRAS G12D-SOS PPI IC50
T1 construct: made in house; host or cells: E. coli (stated for Kras only)
Method in brief: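 Donor beads (nickel) hold His-SOS1; acceptor beads (streptavidin) hold biotin-Kras bound to GDP. Signal measured at 520-620 nm following 680 nm excitation.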

[2] = tested on: Human pancreatic cancer cell line AsPC-1; assay: Measurement of AsPC-1 cell growth inhibition (AsPC-1 CGI); assay type: cell-based; settings: 96 h
Method in brief: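 AsPC-1 cells in 15% FBS RPMI-1640 were exposed to test compound for 96 hours at 37° C, with CellTiter-Glo as endpoint.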

T1 sequence (P01116 1-188 isoform P01116-2 G12D): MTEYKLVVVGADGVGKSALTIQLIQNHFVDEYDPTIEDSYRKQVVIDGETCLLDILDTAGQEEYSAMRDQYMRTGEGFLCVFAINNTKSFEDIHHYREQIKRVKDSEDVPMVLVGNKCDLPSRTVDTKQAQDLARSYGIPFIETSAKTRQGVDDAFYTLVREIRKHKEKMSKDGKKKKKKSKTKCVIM

SMILES	IC50 [1]	IC50 [2]
CC[C@H](C)[C@@H]1NC(=O)[C@H](CC(C)C)N(C)C(=O)C[C@@H](C(=O)N2CCCCC2)N(C)C(=O)[C@H](C2CCCCC2)N(C)C(=O)C2(CCCC2)NC(=O)[C@@H]2CCCN2C(=O)[C@H](CCc2ccc(C(F)(F)F)c(Cl)c2)NC(=O)CN(C)C(=O)[C@H](CC2CCCCC2)N(C)C(=O)CN(CC)C(=O)CN(C)C1=O [Compound 1227] ([NMeL]I[Sar][NEtG][NMeCha][Sar][hPhe(3-Cl-4-CF3)]P[Ac5c][NMeChg][NMeD]-Piperidide; lactam N-11)	1.3 nM	100 to 500 nM
CC[C@H](C)[C@@H]1NC(=O)[C@H](CC(F)(F)F)N(C)C(=O)C[C@@H](C(=O)N2CCCC2)N(C)C(=O)[C@H](C2CCCCC2)N(C)C(=O)C2(CCCC2)NC(=O)[C@@H]2CCCN2C(=O)[C@H](CCc2ccc(C(F)(F)F)c(Cl)c2)NC(=O)CN(C)C(=O)[C@H](Cc2ccc(C)cc2)N(C)C(=O)CN(C)C(=O)CN(C)C1=O [Compound 814] ([NMeAbu(4,4,4-F3)]I[Sar][Sar][NMePhe(4-Me)][Sar][hPhe(3-Cl-4-CF3)]P[Ac5c][NMeChg][NMeD]-Pyrrolidide; lactam N-11)	0.41 nM	20 to 50 nM
CC[C@H](C)[C@@H]1NC(=O)[C@H](CC(C)C)N(C)C(=O)C[C@@H](C(=O)N2CCCCC2)N(C)C(=O)[C@H](C(C)C)N(C)C(=O)C2(CCCC2)NC(=O)[C@@H]2CCCN2C(=O)[C@H](CCc2ccc(C(F)(F)F)c(Cl)c2)NC(=O)CN(C)C(=O)[C@H](Cc2ccc(C)cc2)N(C)C(=O)CN(C)C(=O)CN(C)C1=O [Compound 1594] ([NMeL]I[Sar][Sar][NMePhe(4-Me)][Sar][hPhe(3-Cl-4-CF3)]P[Ac5c][NMeV][NMeD]-Piperidide; lactam N-11)	3.2 nM	100 to 500 nM
CCCOC[C@H]1C(=O)N2CC[C@H]2C(=O)N(C)[C@@H](CC2CCCCC2)C(=O)N(C)CC(=O)N[C@@H](CCc2ccc(C(F)(F)F)c(Cl)c2)C(=O)N2CCC[C@H]2C(=O)NC2(CCCC2)C(=O)N(C)[C@@H](C(C)C)C(=O)N(C)[C@H](C(=O)N2CCCCC2)CC(=O)N(C)[C@@H](CC(C)C)C(=O)N[C@@H]([C@@H](C)CC)C(=O)N1C [Compound 809] ([NMeL]I[NMeS](Propyl)[Aze][NMeCha][Sar][hPhe(3-Cl-4-CF3)]P[Ac5c][NMeV][NMeD]-Piperidide; lactam N-11)	47 nM	100 to 500 nM
CC[C@H](C)[C@@H]1NC(=O)[C@H](CC)N(C)C(=O)C[C@@H](C(=O)N2CCCCC2)N(C)C(=O)[C@H](C2CCCCC2)N(C)C(=O)C2(CCCC2)NC(=O)[C@@H]2CCCN2C(=O)[C@H](CCc2ccc(C(F)(F)F)c(Cl)c2)NC(=O)CN(C)C(=O)[C@H](CC2CCCCC2)N(C)C(=O)CN(C)C(=O)CN(C)C1=O [Compound 1770] ([NMeAbu]I[Sar][Sar][NMeCha][Sar][hPhe(3-Cl-4-CF3)]P[Ac5c][NMeChg][NMeD]-Piperidide; lactam N-11)	0.71 nM	50 to 100 nM
CC[C@H](C)[C@@H]1NC(=O)[C@H](CC(C)C)N(C)C(=O)C[C@@H](C(=O)N(C)C)N(C)C(=O)[C@H]([C@@H](C)CC)N(C)C(=O)C2(CCCC2)NC(=O)[C@H](Cc2ccc(F)cc2)N(C)C(=O)[C@H](CCc2ccc(C(F)(F)F)c(Cl)c2)NC(=O)CN(C)C(=O)[C@H](Cc2ccc(C)cc2)N(C)C(=O)[C@@H]2CCN2C(=O)[C@H](C)N(C)C1=O [Compound 385] ([NMeL]I[NMeA][Aze][NMePhe(4-Me)][Sar][hPhe(3-Cl-4-CF3)][NMePhe(4-F)][Ac5c][NMeI][NMeD]-NMe2; lactam N-11)	4.7 nM	50 to 100 nM
CC[C@H](C)[C@@H]1NC(=O)[C@H](CC)N(C)C(=O)C[C@@H](C(=O)N2C3CCC2COC3)N(C)C(=O)[C@H](C2CCCCC2)N(C)C(=O)C2(CCCC2)NC(=O)[C@@H]2CCCN2C(=O)[C@H](CCc2ccc(C(F)(F)F)c(Cl)c2)NC(=O)CN(C)C(=O)[C@H](CC2CCCCC2)N(C)C(=O)CN(C)C(=O)CN(C)C1=O [Compound 1901] ([NMeAbu]I[Sar][Sar][NMeCha][Sar][hPhe(3-Cl-4-CF3)]P[Ac5c][NMeChg][NMeD]-{3Oxa8azabicyclo(3.2.1)octane}; lactam N-11)	0.56 nM	50 to 100 nM
CC[C@H](C)[C@@H]1NC(=O)[C@H](CC(C)C)N(C)C(=O)C[C@@H](C(=O)N2CCCCC2)N(C)C(=O)[C@H](C2CCCCC2)N(C)C(=O)C2(CCCC2)NC(=O)[C@@H]2CCCN2C(=O)[C@H](CCc2ccc(C(F)(F)F)c(Cl)c2)NC(=O)CN(C)C(=O)[C@H](CC2CC2)N(C)C(=O)CN(C)C(=O)CN(C)C1=O [Compound 234] ([NMeL]I[Sar][Sar][NMeAla(cPr)][Sar][hPhe(3-Cl-4-CF3)]P[Ac5c][NMeChg][NMeD]-Piperidide; lactam N-11)	2.1 nM	> 500 nM
CC(C)C[C@H]1C(=O)N[C@@H](C2CCC2)C(=O)N(C)CC(=O)N(C)CC(=O)N(C)[C@@H](CC2CCCCC2)C(=O)N(C)CC(=O)N[C@@H](CCc2ccc(C(F)(F)F)c(Cl)c2)C(=O)N2CCC[C@H]2C(=O)NC2(CCCC2)C(=O)N(C)[C@@H](C(C)C)C(=O)N(C)[C@H](C(=O)N2CCCCC2)CC(=O)N1C [Compound 221] ([NMeL][Gly(cBu)][Sar][Sar][NMeCha][Sar][hPhe(3-Cl-4-CF3)]P[Ac5c][NMeV][NMeD]-Piperidide; lactam N-11)	2.8 nM	100 to 500 nM
CC[C@H](C)[C@@H]1NC(=O)[C@H](CC(C)C)N(C)C(=O)C[C@@H](C(=O)N2CCCCC2)N(C)C(=O)[C@H](C(C)C)N(C)C(=O)C2(CCCC2)NC(=O)[C@@H]2CCCN2C(=O)[C@H](CCc2ccc(Cl)cc2)NC(=O)CN(C)C(=O)[C@H](CC2CCCCC2)N(C)C(=O)CN(C)C(=O)CN(C)C1=O [Compound 893] ([NMeL]I[Sar][Sar][NMeCha][Sar][hPhe(4-Cl)]P[Ac5c][NMeV][NMeD]-Piperidide; lactam N-11)	21 nM	100 to 500 nM
CC[C@H](C)[C@@H]1NC(=O)[C@H](CC(C)C)N(C)C(=O)C[C@@H](C(=O)N2CCCCC2)N(C)C(=O)[C@H](CC(C)C)N(C)C(=O)C2(CCCC2)NC(=O)[C@@H]2CCCN2C(=O)[C@H](CCc2ccc(C(F)(F)F)c(F)c2)NC(=O)CN(C)C(=O)[C@H](CC2CCCCC2)N(C)C(=O)CN(C)C(=O)CN(C)C1=O [Compound 1501] ([NMeL]I[Sar][Sar][NMeCha][Sar][hPhe(3-F,4-CF3)]P[Ac5c][NMeL][NMeD]-Piperidide; lactam N-11)	14 nM	100 to 500 nM
CC(C)C[C@H]1C(=O)N[C@@H](C2CCC2)C(=O)N(C)CC(=O)N(C)CC(=O)N(C)[C@@H](CC2CCCCC2)C(=O)N(C)CC(=O)N[C@@H](CCc2ccc(C(F)(F)F)c(Cl)c2)C(=O)N2CCC[C@H]2C(=O)NC2(CCCC2)C(=O)N(C)[C@@H](C2CCCCC2)C(=O)N(C)[C@H](C(=O)N2CCCCC2)CC(=O)N1C [Compound 411] ([NMeL][Gly(cBu)][Sar][Sar][NMeCha][Sar][hPhe(3-Cl-4-CF3)]P[Ac5c][NMeChg][NMeD]-Piperidide; lactam N-11)	0.62 nM	50 to 100 nM
CC[C@H](C)[C@@H]1NC(=O)[C@H](CO)N(C)C(=O)C[C@@H](C(=O)N2CCCCC2)N(C)C(=O)[C@H](C2CCCCC2)N(C)C(=O)C2(CCCC2)NC(=O)[C@@H]2CCCN2C(=O)[C@H](CCc2ccc(C(F)(F)F)c(Cl)c2)NC(=O)CN(C)C(=O)[C@H](CC2CCCCC2)N(C)C(=O)CN(C)C(=O)CN(C)C1=O [Compound 1713] ([NMeS]I[Sar][Sar][NMeCha][Sar][hPhe(3-Cl-4-CF3)]P[Ac5c][NMeChg][NMeD]-Piperidide; lactam N-11)	0.49 nM	100 to 500 nM
CCCN1C(=O)C[C@@H](C(=O)N2CCCCC2)N(C)C(=O)[C@H](C(C)C)N(C)C(=O)C2(CCCC2)NC(=O)[C@@H]2CCCN2C(=O)[C@H](CCc2ccc(C(F)(F)F)c(Cl)c2)NC(=O)CN(C)C(=O)[C@H](CC2CCCCC2)N(C)C(=O)CN(C)C(=O)CN(C)C(=O)[C@H]([C@@H](C)CC)NC(=O)[C@@H]1C [Compound 131] ([NPrAla]I[Sar][Sar][NMeCha][Sar][hPhe(3-Cl-4-CF3)]P[Ac5c][NMeV][NMeD]-Piperidide; lactam N-11)	3.3 nM	100 to 500 nM
CC[C@H](C)[C@@H]1NC(=O)[C@H](CC(C)C)N(C)C(=O)C[C@@H](C)N(C)C(=O)[C@H](C(C)C)N(C)C(=O)C2(CCCC2)NC(=O)[C@@H]2CCCN2C(=O)[C@H](CCc2ccc(C(F)(F)F)c(Cl)c2)NC(=O)CN(C)C(=O)[C@H](COc2ccccc2Cl)N(C)C(=O)CN(C)C(=O)CN(C)C1=O [Compound 1589]	39 nM	100 to 500 nM
CCC[C@H]1C(=O)N[C@@H]([C@@H](C)CC)C(=O)N(C)CC(=O)N(C)CC(=O)N(C)[C@@H](Cc2ccc(C(F)(F)F)cc2)C(=O)N(C)CC(=O)N[C@@H](CCc2ccc(C(F)(F)F)c(Cl)c2)C(=O)N2CCC[C@H]2C(=O)NC2(CCCC2)C(=O)N(C)[C@@H](C2CCCCC2)C(=O)N(C)[C@H](C(=O)N2C3CCC2COC3)CC(=O)N1C [Compound 1983] ([NMeNva]I[Sar][Sar][NMePhe(4-CF3)][Sar][hPhe(3-Cl-4-CF3)]P[Ac5c][NMeChg][NMeD]-{3Oxa8azabicyclo(3.2.1)octane}; lactam N-11)	0.68 nM	20 to 50 nM
